From the NIST ThermoML archive (doi:10.1021/acs.jced.5b00737)
± gives the expanded uncertainty stated by the source.

Details: 298.15 K; Liquid; Gas chromatography

| SMILES | vapor or sublimation pressure [kPa] |
| --- | --- |
| c1ccc(C2(N3CCCCC3)CCCCC2)cc1 [1-(1-phenylcyclohexyl)piperidine] | 3e-05 ± 1.2e-05 |
| CC(Cc1ccc(C(C)(C)C)cc1)CN1CCCCC1 (configuration not stated) [1-(3-(4-(tert-butyl)phenyl)-2-methylpropyl)piperidine] | 1.6e-05 ± 8e-06 |
